Measurements: patent US11571418B2, “Platinum compounds that inhibit constitutive STAT3 signaling and induce cell cycle arrest and apoptosis of malignant cells” (H. LEE MOFFITT CANCER CENTER AND RESEARCH INSTITUTE, INC., priority 2011, dated 2023)

Assays:
[1] = tested on: malignant cells harboring constitutively-active Stat3; assay: Ki67 proliferation index by immunohistochemistry; type: cell-based
Method: FIGS. 5A and 5B. Evaluation for effects of PLATINUM-401 on cellular constitutive Stat3 activation and cell proliferation. Normal or malignant cells were treated with or without PLATINUM-401 and nuclear extracts were prepared for Stat3 DNA-binding activity assay with hSIE probe, or cells were processed for nuclear Ki67 immunohistochemistry. (FIG. 5A) EMSA analysis of Stat3 DNA-binding activity; (FIG. 5B) Graphical representations of quantified nuclear staining of Ki-67 proliferation index. Stat3:Stat3-DNA complexes in gels are labeled. The Ki-67 proliferation indexes were calculated as the percent positive tumor cells relative to the total number of cells. […]
Immunohistochemistry—The indirect peroxidase-antiperoxidase test was performed on cytospins prepared from cell lines (control and treated). […] The presence of Ki-67 nuclear staining was calculated as percent positive tumor cells in relation to the total number of cells.
(§1) The inventors further examined the biological effects of PLATINUM-401 and determined whether any changes might correlate with the inhibition of constitutively-active Stat3. […]
Changes in cell proliferation induced by treatment with PLATINUM-401 were assayed in terms of Ki67 proliferation index by immunohistochemistry. The presence of Ki-67 nuclear staining was calculated as the percent positive tumor cells in relation to the total number of cells.

[2] = tested on: malignant cells harboring constitutively-active Stat3; assay: Constitutive Stat3 activation in treated malignant cells (EMSA of nuclear extracts); type: cell-based; settings: 24 h treatment
Method: FIGS. 5A and 5B. Evaluation for effects of PLATINUM-401 on cellular constitutive Stat3 activation and cell proliferation. Normal or malignant cells were treated with or without PLATINUM-401 and nuclear extracts were prepared for Stat3 DNA-binding activity assay with hSIE probe, or cells were processed for nuclear Ki67 immunohistochemistry. (FIG. 5A) EMSA analysis of Stat3 DNA-binding activity; (FIG. 5B) Graphical representations of quantified nuclear staining of Ki-67 proliferation index. Stat3:Stat3-DNA complexes in gels are labeled. The Ki-67 proliferation indexes were calculated as the percent positive tumor cells relative to the total number of cells. Ki67 values are representative of 3 independent assays.
Nuclear extract preparation and gel shift assays—Nuclear extract preparation from NIH3T3 stimulated by rhIL-6, NIH3T3/hEGFR stimulated by rhEGF, v-Src-transformed fibroblasts (NIH3T3/v-Src) or tumor cell lines and electrophoretic mobility shift assay were carried out as previously described (Turkson et al., 1998; Garcia et al., 1997; Yu et al., 1995). […]
as §1

[3] = tested on: Cyclin D1; assay: Cyclin D1 detection, in situ and Western blot; type: cell-based, human; settings: MDA-MB-435, 48 h
Method: FIGS. 8A and 8B. Inhibition of Cyclin D1 and Bcl-xL induction by PLATINUM-401. Viral Src-transformed fibroblasts (NIH3T3/v-Src) and human breast cancer cell line MDA-MB-435 that contain constitutively-activated Stat3 were treated with or without platinum complex for 48 h. Cells were processed for immunohistochemistry, or cell lysates were prepared from cells and subjected to 5% PAGE and Western blot analysis, as indicated in “Materials and Methods.” (FIG. 8A) Detection of Cyclin D1; (FIG. 8B) Detection of Bcl-xL. Positions of Cyclin D1 and Bcl-xL proteins are shown. Beta-actin levels are shown for normalizing for equal total protein. Data are representative of 3 independent determinations.
Western blot—Whole-cell lysates were prepared in boiling sodium dodecyl sulfate (SDS) sample-loading buffer to extract total proteins from the cytoplasm and nucleus. Equivalent amounts of total cellular protein were electrophoresed on an SDS-10% polyacrylamide gel and transferred onto nitrocellulose membranes. Probing of nitrocellulose membranes with primary antibodies and detection of horseradish peroxidase-conjugated secondary antibodies by enhanced chemiluminescence (Amersham, Piscataway, N.J.) were performed as previously described (Garcia et al., 2001; Turkson et al., 2004b; Zhang et al., 2000). […]

In the case of CC(O)CN1CCN(CC(C)O)CC1 (stereo not drawn) [PLATINUM-401], the Ki67 nuclear staining [1] is reported as “significant decreases”, the “constitutive activation of Stat3” value [2] is reported as “significant inhibition” and the “Cyclin D1 level” value [3] is reported as “significantly diminished”.
